The source of these data is PubChem BioAssay AID588673 (Johns Hopkins Ion Channel Center, 2011).

In this assay the target is Potassium voltage-gated channel subfamily KQT member 1 (Homo sapiens) (UniProt P51787). Description: human KCNQ1 channel activators, SAR follow-up, automated patch clamp, CHO cells (AID 588673). In general terms: Patch clamp records ionic current or voltage across a cell membrane.

Structures are written as SMILES. Calls of active or inactive are those of the source.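 Rule for the calls: active = raises KCNQ1 potassium channel current at one or more doses and a concentration response curve can be fitted; inactive = no activation at any dose, or no fittable curve.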

Chain of Potassium voltage-gated channel subfamily KQT member 1 (Homo sapiens) (P51787 whole entry, looked up): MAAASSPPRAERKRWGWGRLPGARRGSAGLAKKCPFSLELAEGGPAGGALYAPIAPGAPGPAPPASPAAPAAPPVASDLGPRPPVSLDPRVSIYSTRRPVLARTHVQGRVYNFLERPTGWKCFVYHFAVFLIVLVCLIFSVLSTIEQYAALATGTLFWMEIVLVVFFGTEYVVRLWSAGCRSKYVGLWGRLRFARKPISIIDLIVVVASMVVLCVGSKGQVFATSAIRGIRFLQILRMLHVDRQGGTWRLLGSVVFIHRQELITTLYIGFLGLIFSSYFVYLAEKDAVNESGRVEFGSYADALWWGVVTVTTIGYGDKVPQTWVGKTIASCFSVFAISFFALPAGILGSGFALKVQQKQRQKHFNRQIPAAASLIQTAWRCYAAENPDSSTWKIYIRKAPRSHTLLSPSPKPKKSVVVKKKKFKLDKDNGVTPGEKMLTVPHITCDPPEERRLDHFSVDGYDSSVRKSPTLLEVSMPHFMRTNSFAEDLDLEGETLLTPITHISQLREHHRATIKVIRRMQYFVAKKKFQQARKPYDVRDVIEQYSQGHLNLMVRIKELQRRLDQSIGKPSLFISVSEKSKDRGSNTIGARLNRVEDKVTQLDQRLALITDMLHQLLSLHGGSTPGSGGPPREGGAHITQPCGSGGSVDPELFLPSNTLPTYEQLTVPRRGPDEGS

In the case of `COc1ccc(-c2csc(NC(=O)[C@H]3CCCCN3S(=O)(=O)c3ccccc3)n2)cc1`, the IC50, inhibition of current was 1390 nM.

`COc1ccc(-c2csc(NC(=O)[C@@H]3CCCCN3S(=O)(=O)c3ccccc3)n2)cc1`: for the setting “at 30 µM (top of the series)”, the “current activation, percent increase” value is “inactive”.

With `COc1ccc(-c2csc(NC(=O)C3CCCCN3S(=O)(=O)c3ccccc3)n2)cc1` (stereo not drawn), the IC50, inhibition of current is 1660 nM.
